In patent publication US11254635B2, “Emodin succinyl ester compound, preparation method therefor and application thereof” (JIANGSU KANION PHARMACEUTICAL CO., LTD., priority 2017, dated 2022):
Read-outs that look alike come from different tables or passages of the source.

Key:
[1] = test system: rats with mixed hyperlipidemia; experiment: Blood lipid levels in rats with mixed hyperlipidemia (high-fat feed), Example 6; type: in vivo; conditions: two weeks; for effect on TG in serum: high dose of the ester; for effect on TG in serum / effect on LDL-C in serum / effect on TC in serum: atorvastatin calcium 10 mg/kg, vs hyperlipidemia group; for effect on LDL-C in serum / effect on TC in serum: low, medium, high doses of the ester; for LDL-C / TC / TG: serum, high-fat diet
Method: (§1) Feeding rats with high-fat feed containing cholesterol, sucrose, lard, and sodium cholate can form a rat model of lipid metabolism disorders, and then the rats are administrated with drug, detect the effect of the test object on hyperlipidemia, and determine the effect of the test object on the lipid absorption, lipoprotein formation, lipid degradation or excretion in rats.
(§2) Second random grouping: After the establishment of the rat hyperlipidemia model, the blood lipids of the rats were measured, and rats in the hyperlipidemia model group were randomly divided into five groups, 11 rats in the positive drug group, 10 rats in each of the other groups. The five groups were the hyperlipidemia model group, the low-dose test object group (emodin succinyl ethyl ester in a dose of 10 mg/kg·d^−1), the medium-dose test object group (emodin succinyl ethyl ester in a dose of 20 mg/kg·d^−1), the high-dose test object group (emodin succinyl ethyl ester in a dose of 40 mg/kg·d^−1), and the positive control drug group (Atorvastatin calcium group in a dose of 10 mg/kg·d^−1), respectively.
In the experimental groups, rats in the blank control group were fed with maintenance feed and the remaining 5 groups were fed with high-fat diet. After 2 weeks, the levels of TG, TC, LDL-C and HDL-C in the serum of the rats were measured. The rats were weighed once a week.
(§3) The rats in the successfully grouped high-dose test object, medium-dose, and low-dose groups and positive control drug group (atorvastatin calcium group) were intragastrically administered daily. Rats in the blank control group and the hyperlipidemia model group were given corresponding doses of lysozyme.
(§4) Feeding conditions remained unchanged. The rats were weighed once a week. Blood were collected at the tip of the tail two weeks after drug administration and livers were taken, to determine the levels of TC, TG, LDL-C, and HDL-C in serum of the rats and the levels of TC and TG in the liver, and then the effect of the test object on the TC, TG, LDL-C and HDL-C in serum of the rats and the TC and TG in liver were observed.

[2] = test system: rats with mixed hyperlipidemia; experiment: Levels of TC and TG in the liver of rats with mixed hyperlipidemia, Example 6; type: in vivo; conditions: two weeks; for TC / TG: liver, high-fat diet; for effect on TC in liver / effect on TG in liver: low, medium, high doses of the ester, atorvastatin calcium 10 mg/kg, vs hyperlipidemia model group
Method: as §1, §2, §3, §4
(3) TC and TG in liver, measured after sampling

[3] = test system: rats with mixed hyperlipidemia; experiment: Comparison of emodin succinyl ethyl ester and emodin in lowering blood lipid levels in rats with mixed hyperlipidemia, Example 7; type: in vivo
Method: Feeding rats with high-fat feed containing cholesterol, sucrose, lard and sodium cholate can form a rat model of lipid metabolism disorders and then the rats are administered with a drug, detect the effects of the test object on hyperlipidemia, and determine the effect of the test object on the lipid absorption, lipoprotein formation, lipid degradation or excretion in rats.
Second random grouping: After the establishment of the rat hyperlipidemia model, the blood lipids of the rats were measured, and rats in the hyperlipidemia model group were randomly divided into four groups, 11 rats in the positive drug group, 10 rats in each of the other groups. The four groups were the hyperlipidemia model group, the low-dose test object (emodin succinyl ethyl ester in a dose of 20 mg/kg·d^−1) group, the emodin (20 mg/kg·d^−1) group, and the positive control drug (Atorvastatin calcium group in a dose of 10 mg/kg·d^−1) group, respectively.
In the experimental groups, rats in the blank control group were fed with maintenance feed and the remaining 4 groups were fed with a high-fat diet. After 2 weeks, the levels of TG, TC, LDL-C and HDL-C in the serum of the rats were measured. The rats were weighed once a week.
as §3, with “grouped” for “grouped high-dose”, “object (emodin succinyl ethyl ester) group, emodin group” for “object, medium-dose, and low-dose groups”
Feeding conditions remained unchanged. The rats were weighed once a week. Blood were collected at the tip of the tail two weeks after drug administration. The effect of the test object on the TC, TG, LDL-C and HDL-C in serum of the rats were observed.

[4] = test system: skin wound of mice with type 1 diabetes; experiment: Wound healing of mice with diabetes (STZ model, 5 mm skin punch wound); type: in vivo, Kunming mice; conditions: 100 μg/mL oil, 10 μL dripped on the wound once a day, 14 days; vs diabetes model, solvent control and emodin groups
Method: SPF-grade male Kunming mice (18-20 g) were adaptively fed with ordinary maintenance feed for 3-5 days, weighed and randomly divided into a blank control group (Control) and a diabetes model group. Mice in the diabetes model group were administrated with high-dose STZ (streptozotocin, 180 mg/kg) through intraperitoneal injection and fasting blood glucose was measured after one week. The mice successfully modeled were randomly divided into 5 groups, namely, the diabetes model group (Model), the solvent control group (Solvent), the positive drug (recombinant human epidermal growth factor) control group (EGF), the emodin group (DHS), and the emodin succinyl ethyl ester group (DHS-YSW).
Animals in each group were anesthetized with sodium pentobarbital (1%) and shaved on the back. A 5 mm skin punch was used to establish a 5 mm wound model at the highest part of the back. The Control group and the Model group were not treated with any drugs. The solvent control group was dripped with 10 μL of sterile vegetable oil. The positive drug group was dripped with 10 μL of recombinant human epidermal factor solution (2000 IU/mL) each day. The other groups were dripped on the wound with 10 μL of a corresponding drug, once a day for 14 consecutive days. […]
The experimental data were expressed as mean±standard error. […] The experimental results were all analyzed and graphed using GraphpadPrism6.0.

[5] = test system: oleic acid-induced hyperlipemia cells (HepG2 cell line); experiment: Levels of TC and TG in oleic acid-induced hyperlipemia cells; type: cell-based; conditions: for TC / TG: HepG2, oleic acid 200 μmol/L, 24 hours
Method: Oleic acid is added to culture HepG2 cells to induce a hyperlipemia cell model, and then the cells are given a test drug, the effect of the test object on the lipid level of the cells is detected.
When the degree of cell fusion reached about 80%, except for the normal group, cells in other groups were all added with oleic acid at a dose of 200 μmol/L, and then the cells were divided into five groups: the normal group, the oleic acid-induced hyperlipemia group, low-dose emodin succinyl ethyl ester group (5 μmol/L), the medium-dose emodin succinyl ethyl ester group (10 μmol/L) and the high dose emodin succinyl ethyl ester group (20 μmol/L). 24 hours later, the levels of TC and TG were measured.
The cells were digested with 0.25% trypsin to prepare a cell suspension; the cell suspension was centrifuged at 1000 rpm for 10 minutes; the supernatant was discarded, and the cell pellet was collected, washed with PBS once or twice, and configured at 1000 rpm for 10 minutes; the supernatant was discarded, and the cell pellet was collected.
200 μl of 2% TritonX-100 was added for lysis for 30 minutes.
First, the protein concentration of the sample was determined using the Beyotime kit. Then, 250 μl of working solution was added to a 96-well plate, 2.5 μl of distilled water was added to the blank wells, 2.5 μl of calibration solution was added to the calibration wells, 2.5 μl of sample was added to the sample wells, and they were all incubated for 10 minutes at 37° C. The OD values were measured by using a 510 nm microplate reader.
3.2.4 Calculation Formulas: Cholesterol content=(sample OD value−blank OD value)/(calibrated OD value−blank OD value)*5.17/protein concentration of the sample to be tested Triglyceride content=(sample OD value−blank OD value)/(calibrated OD value−blank OD value)*2.26/protein concentration of the sample to be tested.

[6] = cited from earlier work
[7] = 10 mg/kg intragastrically once a day
[8] = 20 mg/kg·d^−1, two weeks, vs hyperlipidemia group
[9] = 20 mg/kg·d^−1 vs equivalent dose of emodin (20 mg/kg·d^−1), two weeks
[10] = 20 mg/kg intragastrically once a day
[11] = 40 mg/kg intragastrically once a day
[12] = low, medium and high doses (5, 10, 20 μmol/L), vs oleic acid group

## CC(C)c1c(C(=O)Nc2ccccc2)c(-c2ccccc2)c(-c2ccc(F)cc2)n1CC[C@@H](O)C[C@@H](O)CC(=O)[O-].CC(C)c1c(C(=O)Nc2ccccc2)c(-c2ccccc2)c(-c2ccc(F)cc2)n1CC[C@@H](O)C[C@@H](O)CC(=O)[O-].[Ca+2] [Atorvastatin calcium, reference compound]
[1]
  effect on TG in serum: significantly reduce
  effect on LDL-C in serum: significantly reduce
  effect on TC in serum: significantly reduce
[1]; [7]
  LDL-C: 0.13 ± 0.03 mmol/L
  TC: 2.82 ± 1.02 mmol/L
  TG: 2.94 ± 0.20 mmol/L
[2]; [7]
  TC: 0.066 ± 0.004 mmol/L
  TG: 0.090 ± 0.008 mmol/L
[2]
  effect on TC in liver: reduce
  effect on TG in liver: reduce

## CCOC(=O)CCC(=O)Oc1cc(O)c2c(c1)C(=O)c1cc(C)cc(O)c1C2=O [emodin succinyl ethyl ester, 1,8-dihydroxy-3-succinic acid monoethyl group-6-Methylanthraquinone]
[3]; [8]
  effect on LDL-C in serum: significantly reduce
  effect on TC in serum: significantly reduce
[3]; [9]
  lowering LDL-C in serum compared with emodin: better effects
  lowering TC in serum compared with emodin: better effects
[1]
  effect on TG in serum: significantly reduce
  effect on LDL-C in serum: significantly reduce
  effect on TC in serum: significantly reduce
[1]; [7]
  LDL-C: 0.17 ± 0.08 mmol/L
  TC: 2.60 ± 0.74 mmol/L
  TG: 3.98 ± 0.63 mmol/L
[1]; [10]
  LDL-C: 0.15 ± 0.05 mmol/L
  TC: 2.36 ± 0.78 mmol/L
  TG: 4.12 ± 0.37 mmol/L
[1]; [11]
  LDL-C: 0.18 ± 0.03 mmol/L
  TC: 2.88 ± 0.34 mmol/L
  TG: 3.23 ± 0.12 mmol/L
[4]
  wound healing speed: significantly faster wound healing speed
[5]; 5 μmol/L
  TC: 0.730 ± 0.168 mmol/L
  TG: 0.610 ± 0.308 mmol/L
[5]; 10 μmol/L
  TC: 0.506 ± 0.197^###& mmol/L
  TG: 0.487 ± 0.347 mmol/L
[5]; 20 μmol/L
  TC: 0.537 ± 0.145^###&& mmol/L
  TG: 0.414 ± 0.209 mmol/L
[5]; [12]
  effect on level of TC of cells: significantly reduce
  effect on level of TG of cells: significantly reduce
[2]; [7]
  TC: 0.069 ± 0.010 mmol/L
  TG: 0.105 ± 0.023 mmol/L
[2]; [10]
  TC: 0.078 ± 0.010 mmol/L
  TG: 0.127 ± 0.016 mmol/L
[2]; [11]
  TC: 0.059 ± 0.005 mmol/L
  TG: 0.079 ± 0.011 mmol/L
[2]
  effect on TC in liver: reduce
  effect on TG in liver: reduce

## Cc1cc(O)c2c(c1)C(=O)c1cc(O)cc(O)c1C2=O [emodin, 1,3,8-trihydroxy-6-methylanthraquinone]
[6]; female SD rats
  absolute bioavailability: 5%
[6]; male SD rats
  absolute bioavailability: 7.5%
